Target: α-glucosidase (Maltase EC 3.2.1.20)
Assay: PNPG hydrolysis enzyme inhibition assay, absorbance at […] nm
Type: biochemical

## Oc1cc(O)c2c(c1)O[C@@]1(c3ccc(O)c(O)c3)Oc3cc(O)c4c(c3[C@@H]2[C@H]1O)O[C@H](c1ccc(O)c(O)c1)[C@H](O)C4 [PCA2, Procyanidin A2]
  IC50: 460 ± 10 nM

From PMC9064588 (RSC Advances, 2019)
